Experimental data: patent EP0844879B1, “PHARMACEUTICAL CO[…] D[…] IN […] IMMUNE RESPONSE” (LA[…] SPINDLER, priority 1995, dated 1996)
Entries after “also recorded” stand apart in the source; their conditions may differ.

Tested on: vaccin monovalent de la grippe (vaccin NIB16, souche A) (HA)
Assay: Immunisation of mice with monovalent influenza vaccine, steroid as adjuvant; total anti-HA IgG in serum by enzyme immunoassay
Format: in vivo, souris BALB/C
Conditions: aged mice compared with young mice; steroid given with HA
Protocol: Un protocole d'immunisation contre le vaccin monovalent de la grippe (vaccin NIB16, souche A) (HA), est utilisé pour tester l'effet adjuvant du dérivé 3β-palmitoyl de la 7αOH-DHEA mis en solution à 10 mg/ml dans le DMSO.
Trois lots de 5 souris BALB/C âgées de 6 semaines (jeunes) et trois lots de 5 souris BALB/C âgées de 90 semaines (âgées) subissent le premier jour une injection sous-cutanée de 0,5 ml de sérum physiologique contenant : • soit 8 µg de HA + 1,8 µmole (0,78 mg/kg) de 3β-palmitoyl-7αOH-DHEA (lot 1) • soit 8 µg de HA + 1,8 µmole (0,56 mg/kg) de 7αOH-DHEA (lot 2) • soit 8 µg de HA (lot 3) Après 28 jours, chaque souris de chaque lot subit un rappel, les injections décrites étant répétées pour chaque lot. Après 38 jours, chaque souris de chaque lot est sacrifiée et le sang prélevé. Les IgG totales anti-HA sont mesurées dans chaque sérum par une méthode immunoenzymatique. […] Tableau 1

SMILES: C[C@]12CC[C@H](O)CC1=C[C@@H](O)[C@@H]1[C@@H]2CC[C@]2(C)C(=O)CC[C@@H]12 [7αOH-DHEA, reference compound]
- réponse immunitaire des souris âgées (result in words): cette réponse n'est pas obtenue

SMILES: CCCCCCCCCCCCCCCC(=O)O[C@H]1CC[C@@]2(C)C(=C[C@@H](O)[C@@H]3[C@@H]2CC[C@]2(C)C(=O)CC[C@@H]32)C1 [3β-palmitoyl-7αOH-DHEA]
- réponse immunitaire des souris âgées (result in words): rétablit la réponse immunitaire des souris âgées à un niveau proche de celui des souris jeunes; also recorded: a un effet sur la réponse immunitaire des souris âgées comparable à celui obtenu chez les souris jeunes
